Reference: ChEMBL document CHEMBL1909046, “DrugMatrix in vitro pharmacology data”

Tests used:
[1] = DRUGMATRIX: Calcium Channel Type L, Benzothiazepine radioligand binding (ligand: [3H] Diltiazem); type: cell membranes, Rattus norvegicus, Wistar, Brain, Membrane; settings: Not Active = under 50% inhibition at 10 µM
[2] = molecular target: 5-hydroxytryptamine receptor 4 (Cavia porcellus, UniProt O70528); type: cell membranes, Dunkin-Hartley, Striatum, Membrane; also: in other assays of this panel Not Active means under 50% inhibition at 10 µM
[3] = molecular target: Vascular endothelial growth factor receptor 1 (Homo sapiens, UniProt P17948); test: biochemical; type: cell-based, HUVEC; settings: huvec; also: in other assays of this panel Not Active means under 50% inhibition at 10 µM
[4] = molecular target: T1, Cholecystokinin receptor type A (Homo sapiens, UniProt P32238); type: cell membranes, Membrane; settings: 1321-n1; also: in other assays of this panel Not Active means under 50% inhibition at 10 µM
T1 sequence (P32238 whole entry): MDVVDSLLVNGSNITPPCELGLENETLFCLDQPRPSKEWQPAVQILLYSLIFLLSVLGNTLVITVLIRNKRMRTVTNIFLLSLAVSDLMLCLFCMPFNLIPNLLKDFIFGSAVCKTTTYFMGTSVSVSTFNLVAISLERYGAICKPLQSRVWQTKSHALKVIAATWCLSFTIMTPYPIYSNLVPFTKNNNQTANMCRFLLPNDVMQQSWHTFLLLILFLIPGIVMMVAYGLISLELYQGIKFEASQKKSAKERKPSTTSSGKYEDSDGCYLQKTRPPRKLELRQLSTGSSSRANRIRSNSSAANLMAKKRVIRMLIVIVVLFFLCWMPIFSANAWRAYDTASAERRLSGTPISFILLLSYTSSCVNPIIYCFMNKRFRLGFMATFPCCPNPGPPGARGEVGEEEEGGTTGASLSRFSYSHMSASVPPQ

[5] = molecular target: T2, Neuropeptide Y receptor type 2 (Homo sapiens, UniProt P49146); type: cell membranes, Membrane; settings: kan-ts; also: in other assays of this panel Not Active means under 50% inhibition at 10 µM
T2 sequence (P49146 whole entry): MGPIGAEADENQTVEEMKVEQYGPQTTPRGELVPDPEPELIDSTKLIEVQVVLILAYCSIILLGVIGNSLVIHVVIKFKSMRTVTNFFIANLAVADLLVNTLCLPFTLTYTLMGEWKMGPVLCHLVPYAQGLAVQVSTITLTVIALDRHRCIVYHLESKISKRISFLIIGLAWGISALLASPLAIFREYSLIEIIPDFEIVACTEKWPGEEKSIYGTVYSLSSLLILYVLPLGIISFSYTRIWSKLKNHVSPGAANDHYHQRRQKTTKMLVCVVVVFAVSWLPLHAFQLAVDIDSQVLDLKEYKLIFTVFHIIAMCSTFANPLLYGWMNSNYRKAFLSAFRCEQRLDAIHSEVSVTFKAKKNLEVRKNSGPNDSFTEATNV

[6] = molecular target: Tyrosine-protein kinase Fyn (Homo sapiens, UniProt P06241); test: biochemical; type: cell-based, Insect cells; settings: insect cells
Chain of Tyrosine-protein kinase Fyn (P06241 whole entry): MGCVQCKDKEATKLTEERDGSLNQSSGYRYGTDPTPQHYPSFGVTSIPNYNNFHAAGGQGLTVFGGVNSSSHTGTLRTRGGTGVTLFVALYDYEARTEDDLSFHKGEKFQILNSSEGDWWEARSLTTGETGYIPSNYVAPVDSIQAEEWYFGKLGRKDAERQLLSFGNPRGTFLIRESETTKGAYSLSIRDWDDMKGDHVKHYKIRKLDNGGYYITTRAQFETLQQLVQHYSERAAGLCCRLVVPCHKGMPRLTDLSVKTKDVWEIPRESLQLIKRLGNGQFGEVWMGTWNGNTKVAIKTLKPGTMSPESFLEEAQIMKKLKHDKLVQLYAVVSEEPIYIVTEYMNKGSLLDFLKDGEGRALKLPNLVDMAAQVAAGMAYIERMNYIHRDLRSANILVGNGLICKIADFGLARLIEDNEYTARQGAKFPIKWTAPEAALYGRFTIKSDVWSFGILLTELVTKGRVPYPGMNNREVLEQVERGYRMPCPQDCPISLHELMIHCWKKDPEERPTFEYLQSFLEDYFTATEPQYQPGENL

Chain of Vascular endothelial growth factor receptor 1 (P17948 whole entry): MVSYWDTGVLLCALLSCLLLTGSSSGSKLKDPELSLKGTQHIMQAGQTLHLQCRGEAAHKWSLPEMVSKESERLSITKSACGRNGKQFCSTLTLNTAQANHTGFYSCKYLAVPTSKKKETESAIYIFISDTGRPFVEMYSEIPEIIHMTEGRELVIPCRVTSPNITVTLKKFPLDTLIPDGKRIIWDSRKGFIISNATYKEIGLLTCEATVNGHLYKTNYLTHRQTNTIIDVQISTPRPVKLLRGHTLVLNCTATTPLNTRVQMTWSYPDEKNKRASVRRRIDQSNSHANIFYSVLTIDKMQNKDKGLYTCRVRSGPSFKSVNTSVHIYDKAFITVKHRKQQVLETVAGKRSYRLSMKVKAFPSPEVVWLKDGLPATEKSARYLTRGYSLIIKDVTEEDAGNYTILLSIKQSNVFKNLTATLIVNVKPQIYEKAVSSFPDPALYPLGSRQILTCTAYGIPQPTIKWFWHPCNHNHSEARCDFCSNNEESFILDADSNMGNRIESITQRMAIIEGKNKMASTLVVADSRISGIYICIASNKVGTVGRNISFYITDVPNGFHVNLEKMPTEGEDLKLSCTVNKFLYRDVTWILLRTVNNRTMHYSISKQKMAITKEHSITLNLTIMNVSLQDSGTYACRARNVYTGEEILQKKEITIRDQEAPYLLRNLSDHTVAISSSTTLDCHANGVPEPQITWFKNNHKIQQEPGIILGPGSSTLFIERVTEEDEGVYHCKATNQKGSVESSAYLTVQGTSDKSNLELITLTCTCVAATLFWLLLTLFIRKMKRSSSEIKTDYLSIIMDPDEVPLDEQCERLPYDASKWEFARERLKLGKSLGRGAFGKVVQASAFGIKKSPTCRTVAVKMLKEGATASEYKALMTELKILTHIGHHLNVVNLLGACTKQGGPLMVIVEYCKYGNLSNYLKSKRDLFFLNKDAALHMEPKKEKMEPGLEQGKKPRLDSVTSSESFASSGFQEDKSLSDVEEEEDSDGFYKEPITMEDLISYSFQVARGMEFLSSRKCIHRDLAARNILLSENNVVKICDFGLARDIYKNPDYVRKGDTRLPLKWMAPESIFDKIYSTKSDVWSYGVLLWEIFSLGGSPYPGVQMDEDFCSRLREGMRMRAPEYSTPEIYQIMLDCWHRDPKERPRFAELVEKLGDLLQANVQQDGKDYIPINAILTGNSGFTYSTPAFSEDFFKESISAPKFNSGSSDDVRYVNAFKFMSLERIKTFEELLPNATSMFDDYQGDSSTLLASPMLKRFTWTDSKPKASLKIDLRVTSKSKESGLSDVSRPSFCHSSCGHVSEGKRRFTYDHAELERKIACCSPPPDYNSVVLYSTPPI
Chain of 5-hydroxytryptamine receptor 4 (O70528 whole entry): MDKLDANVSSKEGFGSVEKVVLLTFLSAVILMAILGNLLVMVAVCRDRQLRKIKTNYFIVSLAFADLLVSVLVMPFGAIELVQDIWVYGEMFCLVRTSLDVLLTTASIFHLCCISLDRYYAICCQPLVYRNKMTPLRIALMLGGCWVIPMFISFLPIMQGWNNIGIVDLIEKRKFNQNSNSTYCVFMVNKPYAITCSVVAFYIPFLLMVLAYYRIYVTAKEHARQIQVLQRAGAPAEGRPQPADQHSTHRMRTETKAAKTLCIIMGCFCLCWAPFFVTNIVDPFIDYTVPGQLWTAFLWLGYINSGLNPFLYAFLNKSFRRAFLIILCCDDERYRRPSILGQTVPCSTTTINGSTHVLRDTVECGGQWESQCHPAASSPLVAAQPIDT

C[C@]12CCC(=O)C=C1CC[C@@H]1[C@@H]2[C@@H](O)C[C@@]2(C)[C@H]1CC[C@]2(O)C(=O)CO [HYDROCORTISONE]
Not Active: IC50 [1] | Ki [1] | IC50 [2] | IC50 [3] | IC50 [4] | IC50 [5] | IC50 [6]

C/C=C\c1ccc(O)c(OC)c1 [ISOEUGENOL]
Not Active: IC50 [1] | Ki [1] | IC50 [2] | IC50 [3] | IC50 [4] | IC50 [5] | IC50 [6]

NC[C@H]1O[C@H](O[C@H]2[C@H](O)[C@@H](O[C@H]3O[C@H](CO)[C@@H](O)[C@H](N)[C@H]3O)[C@H](N)C[C@@H]2N)[C@H](O)[C@@H](O)[C@@H]1O [KANAMYCIN]
Not Active: IC50 [1] | Ki [1] | IC50 [2] | IC50 [3] | IC50 [4] | IC50 [5] | IC50 [6]

CC[C@H](C)C(=O)O[C@H]1C[C@@H](C)C=C2C=C[C@H](C)[C@H](CC[C@@H]3C[C@@H](O)CC(=O)O3)[C@H]21 [LOVASTATIN]
Not Active: IC50 [1] | Ki [1] | IC50 [2] | IC50 [3] | IC50 [4] | IC50 [5] | IC50 [6]

CC(C(=O)O)c1ccc(CC2CCCC2=O)cc1 (stereo not drawn) [LOXOPROFEN]
Not Active: IC50 [1] | Ki [1] | IC50 [2] | IC50 [3] | IC50 [4] | IC50 [5] | IC50 [6]

Cc1cccc(Nc2ccccc2C(=O)O)c1C [MEFENAMIC ACID]
Not Active: IC50 [1] | Ki [1] | IC50 [2] | IC50 [3] | IC50 [4] | IC50 [5] | IC50 [6]

CC(=O)O[C@]1(C(C)=O)CC[C@H]2[C@@H]3C=C(C)C4=CC(=O)CC[C@]4(C)[C@H]3CC[C@@]21C [MEGESTROL ACETATE]
Not Active: IC50 [1] | Ki [1] | IC50 [2] | IC50 [3] | IC50 [4] | IC50 [5] | IC50 [6]

COc1ccccc1OCC(O)COC(N)=O (stereo not drawn) [METHOCARBAMOL]
Not Active: IC50 [1] | Ki [1] | IC50 [2] | IC50 [3] | IC50 [4] | IC50 [5] | IC50 [6]

CN(Cc1cnc2nc(N)nc(N)c2n1)c1ccc(C(=O)N[C@@H](CCC(=O)O)C(=O)O)cc1 [METHOTREXATE]
Not Active: IC50 [1] | Ki [1] | IC50 [2] | IC50 [3] | IC50 [4] | IC50 [5] | IC50 [6]

COC(=O)c1ccccc1O [METHYL SALICYLATE]
Not Active: IC50 [1] | Ki [1] | IC50 [2] | IC50 [3] | IC50 [4] | IC50 [5] | IC50 [6]

COc1ccc2cc(CCC(C)=O)ccc2c1 [NABUMETONE]
Not Active: IC50 [1] | Ki [1] | IC50 [2] | IC50 [3] | IC50 [4] | IC50 [5] | IC50 [6]

O=C(O)c1cccnc1 [NIACIN]
Not Active: IC50 [1] | Ki [1] | IC50 [2] | IC50 [3] | IC50 [4] | IC50 [5] | IC50 [6]

CNC(=C[N+](=O)[O-])NCCSCc1csc(CN(C)C)n1 [NIZATIDINE]
Not Active: IC50 [1] | Ki [1] | IC50 [2] | IC50 [3] | IC50 [4] | IC50 [5] | IC50 [6]

C[C@]12C/C(=C/O)C(=O)C[C@@H]1CC[C@@H]1[C@@H]2CC[C@@]2(C)[C@H]1CC[C@]2(C)O [OXYMETHOLONE]
Not Active: IC50 [1] | Ki [1] | IC50 [2] | IC50 [3] | IC50 [4] | IC50 [5] | IC50 [6]

CC(C)(CO)C(O)C(=O)NCCCO (stereo not drawn) [PANTHENOL]
Not Active: IC50 [1] | Ki [1] | IC50 [2] | IC50 [3] | IC50 [4] | IC50 [5] | IC50 [6]

COc1ccc(Cc2nccc3cc(OC)c(OC)cc23)cc1OC [PAPAVERINE]
Not Active: IC50 [1] | Ki [1] | IC50 [2] | IC50 [3] | IC50 [4] | IC50 [5] | IC50 [6]

OCCN1CCN(CCCN2c3ccccc3Sc3ccc(Cl)cc32)CC1 [PERPHENAZINE]
Not Active: IC50 [1] | Ki [1] | IC50 [2] | IC50 [3] | IC50 [4] | IC50 [5] | IC50 [6]

CCCCC1C(=O)N(c2ccccc2)N(c2ccccc2)C1=O [PHENYLBUTAZONE]
Not Active: IC50 [1] | Ki [1] | IC50 [2] | IC50 [3] | IC50 [4] | IC50 [5] | IC50 [6]

Cc1cccc(Nc2cc(Cl)nc(SCC(=O)O)n2)c1C [PIRINIXIC ACID]
Not Active: IC50 [1] | Ki [1] | IC50 [2] | IC50 [3] | IC50 [4] | IC50 [5] | IC50 [6]

CC[C@H](C)C(=O)O[C@H]1C[C@H](O)C=C2C=C[C@H](C)[C@H](CC[C@@H](O)C[C@@H](O)CC(=O)O)[C@H]21 [PRAVASTATIN]
Not Active: IC50 [1] | Ki [1] | IC50 [2] | IC50 [3] | IC50 [4] | IC50 [5] | IC50 [6]

CC(C)(Sc1cc(C(C)(C)C)c(O)c(C(C)(C)C)c1)Sc1cc(C(C)(C)C)c(O)c(C(C)(C)C)c1 [PROBUCOL]
Not Active: IC50 [1] | Ki [1] | IC50 [2] | IC50 [3] | IC50 [4] | IC50 [5] | IC50 [6]

COBALT(II) ACETYLACETONATE
Not Active: IC50 [1] | Ki [1] | IC50 [2] | Ki [2] | IC50 [3] | Ki [3] | IC50 [4] | Ki [4] | IC50 [5] | Ki [5] | IC50 [6] | Ki [6]

INSULIN HUMAN
Not Active: IC50 [1] | Ki [1] | IC50 [2] | Ki [2] | IC50 [3] | Ki [3] | IC50 [4] | Ki [4] | IC50 [5] | Ki [5] | IC50 [6] | Ki [6]

POLYVINYL ALCOHOL
Not Active: IC50 [1] | Ki [1] | IC50 [2] | Ki [2] | IC50 [3] | Ki [3] | IC50 [4] | Ki [4] | IC50 [5] | Ki [5] | IC50 [6] | Ki [6]
